Patent US4156777A, “Process for producing glucopyranose-nitrosourea compounds and novel compounds included therein” (Tokyo Tanabe Company, Limited, priority 1977, dated 1979)
Values after ≈ are worked out from the molar mass of the structure shown.

Key:
[1] = Solubility in water at 25° C.; assay type: physicochemical; conditions: amount soluble in 1 ml water at 25° C.
leukemia L-1210 = assay: Antitumor activity against leukemia L-1210 implanted in BDF1 mice (ILS, 60 days survivors); assay type: in vivo
Text: Test compounds were given to BDF1 mice 24 hrs after implantation of 10^6 cells of leukemia L-1210 in each animal, through single intraperitoneal administration, intraperitoneal administration for 5 successive days, single oral administration or oral administration for 5 successive days, whereupon the increase in life span (referred to as "ILS") and number of 60 days survivors of test animals were estimated, said test of antitumor activity being that according to the method of the National Cancer Center, Tokyo [A. Hoshi et al: Farmashia, 9 (1973), 464]. In the tests, the compounds were dissolved in physiological saline solution just before administration.
^a i.p.: intraperitoneal administration p.o: oral administration
D1 : single administration D1~5 : administration for 5
^b percentage calculated from mean survival time over control
^c survivors/six animals

[2] = Diabetogenic activity (blood glucose concentration after intravenous administration); assay type: in vivo, male Wister rats
Procedure: 40-96 mg/kg of the test compounds were administered intravenously to starved male Wister rats weighing 240-260 g each, and the blood glucose concentrations of the test animals were estimated by the glucose exidase method [L. L. Saloman et al: Anal. Chem., 31 (1959), 453], in which test the compounds were dissolved in physiological saline solution just before administration. […]

Acute toxicity (LD50) = assay type: in vivo, male Wister rats; conditions: rat, in vivo, after 1 week
Procedure: Test compounds were dissolved in physiological saline solution just before their dosage and administered to male Wister rats, intraperitoneally, intravenously and orally. After 1 week, the LD50 of each compound was calculated from the mortality of the test animals by the Lichfield-Wilcoxon Method.
i.v.: intravenous administration

[3] = Effect on respiration, blood pressure, heart rate and electrocardiogram; assay type: in vivo, Beagle dogs; conditions: dog, in vivo, iv; injected into brachial veins, anesthetized Beagle dogs; read-out: maximum dosage not effected on respiration, blood pressure, heart rate and electrocardiogram
Procedure: Beagle dogs of both sexes weighing about 10 kg were anesthetized with pentobarbital sodium (30 mg/kg, i.v.), and immobilized in the supine position. Test compounds dissolved in physiological saline solution were injected into the brachial veins of the animals and the arteries at cannulated positions were treated with heparin sodium as anticoagulant.
The respiration rate of each animal was estimated with a respirometer (Nihonkohden, RP-3) through a tracheal cannula, the blood pressure with an electro-haemodynamometer (Nihonkohden, MP-4T) attached surgically to the femoral artery, and the heart rate with a pulse-rate tachometer (Nihonkohden, RT-2) through the trigger pulse of the blood pressure.

[4] = Absorption and excretion of 14C-labelled compounds; assay type: in vivo, rats; conditions: rats, 14C-labelled
Procedure: The carbon atom at the 2-position of the chloroethyl group (i.e. ClCH2 CH2 -) of 6DCNU and 6MCαG was labelled with radioactive ^14 C, and the absorption and excretion of these compounds were tested using rats.

[5] = tested on: Bacillus subtilis ATCC 6633; assay: Antibacterial activity, broth-dilution method; assay type: cell-based; conditions: ATCC6633
Text: (§1) Using 6DCNU and 6MCαG, minimum inhibiting concentrations (referred to as "MIC") for various kinds of bacteria were estimated by means of the broth-dilution method.

[6] = tested on: Escherichia coli NIHJ JC-2; assay: Antibacterial activity, broth-dilution method; assay type: cell-based; conditions: NIHJJC2
Text: as §1

[7] = tested on: Klebsiella pneumoniae IFM 3008; assay: Antibacterial activity, broth-dilution method; assay type: cell-based; conditions: IFM3008
Text: as §1

[8] = tested on: Mycobacterium smegmatis ATCC 607; assay: Antibacterial activity, broth-dilution method; assay type: cell-based; conditions: Mycolicibacterium smegmatis, ATCC607
Text: as §1

[9] = tested on: Proteus vulgaris AHU 1469; assay: Antibacterial activity, broth-dilution method; assay type: cell-based; conditions: AHU1469
Text: as §1

[10] = tested on: Pseudomonas aeruginosa IFO 3080; assay: Antibacterial activity, broth-dilution method; assay type: cell-based; conditions: IFO3080
Text: as §1

Sarcina lutea ATCC 9341 = assay: Antibacterial activity, broth-dilution method; assay type: cell-based; conditions: Micrococcus luteus, ATCC9341
Text: as §1

[11] = tested on: Staphylococcus aureus FDA 209P JC-1; assay: Antibacterial activity, broth-dilution method; assay type: cell-based; conditions: FDA209P
Text: as §1

[12] = tested on: Streptococcus faecalis AHU 1085; assay: Antibacterial activity, broth-dilution method; assay type: cell-based; conditions: Enterococcus faecalis, AHU1085
Text: as §1

SMILES: CO[C@H]1O[C@H](CNC(=O)N(CCCl)N=O)[C@@H](O)[C@H](O)[C@H]1O [Example 6MCαG, 1-(2-chloroethyl)-3-(methyl α-D-glucopyranos-6-yl)-1-nitrosourea]
- solubility [1]: 900 mg/mL (≈ 2750 mM)
- ILS (leukemia L-1210; 2.3 mg/kg/day, i.p. D1~5): > 207%
- Survivors (60 days) (leukemia L-1210; 2.3 mg/kg/day, i.p. D1~5): 1/6
- ILS (leukemia L-1210; 3.2 mg/kg/day, i.p. D1~5): > 521%
- Survivors (60 days) (leukemia L-1210; 3.2 mg/kg/day, i.p. D1~5): 4/6
- ILS (leukemia L-1210; 3.2 mg/kg/day, p.o. D1~5): 38%
- ILS (leukemia L-1210; 4.5 mg/kg/day, i.p. D1~5): > 607%
- Survivors (60 days) (leukemia L-1210; 4.5 mg/kg/day, i.p. D1~5): 5/6
- ILS (leukemia L-1210; 6.3 mg/kg/day, i.p. D1): > 241%
- Survivors (60 days) (leukemia L-1210; 6.3 mg/kg/day, i.p. D1): 3/6
- ILS (leukemia L-1210; 6.3 mg/kg/day, i.p. D1~5): > 722%
- Survivors (60 days) (leukemia L-1210; 6.3 mg/kg/day, i.p. D1~5): 6/6
- ILS (leukemia L-1210; 6.3 mg/kg/day, p.o. D1~5): > 397%
- Survivors (60 days) (leukemia L-1210; 6.3 mg/kg/day, p.o. D1~5): 3/6
- ILS (leukemia L-1210; 9.0 mg/kg/day, i.p. D1): > 604%
- Survivors (60 days) (leukemia L-1210; 9.0 mg/kg/day, i.p. D1): 5/6
- ILS (leukemia L-1210; 9.0 mg/kg/day, i.p. D1~5): > 700%
- Survivors (60 days) (leukemia L-1210; 9.0 mg/kg/day, i.p. D1~5): 6/6
- ILS (leukemia L-1210; 9.0 mg/kg/day, p.o. D1~5): > 417%
- Survivors (60 days) (leukemia L-1210; 9.0 mg/kg/day, p.o. D1~5): 3/6
- ILS (leukemia L-1210; 12.5 mg/kg/day, i.p. D1): > 619%
- Survivors (60 days) (leukemia L-1210; 12.5 mg/kg/day, i.p. D1): 6/6
- ILS (leukemia L-1210; 12.5 mg/kg/day, i.p. D1~5): > 722%
- Survivors (60 days) (leukemia L-1210; 12.5 mg/kg/day, i.p. D1~5): 6/6
- ILS (leukemia L-1210; 12.5 mg/kg/day, p.o. D1~5): > 700%
- Survivors (60 days) (leukemia L-1210; 12.5 mg/kg/day, p.o. D1~5): 6/6
- ILS (leukemia L-1210; 18.0 mg/kg/day, i.p. D1): > 632%
- Survivors (60 days) (leukemia L-1210; 18.0 mg/kg/day, i.p. D1): 6/6
- ILS (leukemia L-1210; 18.0 mg/kg/day, i.p. D1~5): > 493%
- Survivors (60 days) (leukemia L-1210; 18.0 mg/kg/day, i.p. D1~5): 4/6
- ILS (leukemia L-1210; 18.0 mg/kg/day, p.o. D1~5): > 679%
- Survivors (60 days) (leukemia L-1210; 18.0 mg/kg/day, p.o. D1~5): 6/6
- ILS (leukemia L-1210; 25.0 mg/kg/day, i.p. D1): > 625%
- Survivors (60 days) (leukemia L-1210; 25.0 mg/kg/day, i.p. D1): 6/6
- ILS (leukemia L-1210; 25.0 mg/kg/day, i.p. D1~5): > 393%
- Survivors (60 days) (leukemia L-1210; 25.0 mg/kg/day, i.p. D1~5): 3/6
- ILS (leukemia L-1210; 25.0 mg/kg/day, p.o. D1~5): 233%
- ILS (leukemia L-1210; 35.0 mg/kg/day, i.p. D1): > 632%
- Survivors (60 days) (leukemia L-1210; 35.0 mg/kg/day, i.p. D1): 6/6
- ILS (leukemia L-1210; 35.0 mg/kg/day, i.p. D1~5): > 157%
- Survivors (60 days) (leukemia L-1210; 35.0 mg/kg/day, i.p. D1~5): 1/6
- ILS (leukemia L-1210; 50.0 mg/kg/day, i.p. D1): > 388%
- Survivors (60 days) (leukemia L-1210; 50.0 mg/kg/day, i.p. D1): 3/6
- Blood Glucose Concentration ([2]; 40 mg/kg i.v., 0 hr after treatment): 72.0 mg/dL
- Blood Glucose Concentration ([2]; 40 mg/kg i.v., 2 hr after treatment): 75.9 mg/dL
- Blood Glucose Concentration ([2]; 40 mg/kg i.v., 4 hr after treatment): 79.3 mg/dL
- Blood Glucose Concentration ([2]; 40 mg/kg i.v., 7 hr after treatment): 71.7 mg/dL
- Blood Glucose Concentration ([2]; 40 mg/kg i.v., 10 hr after treatment): 79.4 mg/dL
- Blood Glucose Concentration ([2]; 40 mg/kg i.v., 24 hr after treatment): 73.1 mg/dL
- Blood Glucose Concentration ([2]; 40 mg/kg i.v., 48 hr after treatment): 75.3 mg/dL
- Blood Glucose Concentration ([2]; 60 mg/kg i.v., 0 hr after treatment): 71.8 mg/dL
- Blood Glucose Concentration ([2]; 60 mg/kg i.v., 2 hr after treatment): 72.5 mg/dL
- Blood Glucose Concentration ([2]; 60 mg/kg i.v., 4 hr after treatment): 69.8 mg/dL
- Blood Glucose Concentration ([2]; 60 mg/kg i.v., 7 hr after treatment): 68.7 mg/dL
- Blood Glucose Concentration ([2]; 60 mg/kg i.v., 10 hr after treatment): 67.7 mg/dL
- Blood Glucose Concentration ([2]; 60 mg/kg i.v., 24 hr after treatment): 68.4 mg/dL
- Blood Glucose Concentration ([2]; 60 mg/kg i.v., 48 hr after treatment): 70.8 mg/dL
- Blood Glucose Concentration ([2]; 80 mg/kg i.v., 0 hr after treatment): 73.7 mg/dL
- Blood Glucose Concentration ([2]; 80 mg/kg i.v., 2 hr after treatment): 82.0 mg/dL
- Blood Glucose Concentration ([2]; 80 mg/kg i.v., 4 hr after treatment): 78.3 mg/dL
- Blood Glucose Concentration ([2]; 80 mg/kg i.v., 7 hr after treatment): 77.8 mg/dL
- Blood Glucose Concentration ([2]; 80 mg/kg i.v., 10 hr after treatment): 73.6 mg/dL
- Blood Glucose Concentration ([2]; 80 mg/kg i.v., 24 hr after treatment): 76.3 mg/dL
- Blood Glucose Concentration ([2]; 80 mg/kg i.v., 48 hr after treatment): 83.1 mg/dL
- blood glucose concentrations versus control, in words ([2]; i.v., rats): substantially the same blood glucose concentrations as that in the control
- LD50 at 168 h (Acute toxicity (LD50); ip): 42 mg/kg
- LD50 at 168 h (Acute toxicity (LD50); iv): 42 mg/kg
- LD50 at 168 h (Acute toxicity (LD50); po): 50 mg/kg
- NOAEL [3]: 50 mg/kg
- absorption, in words [4]: absorbed well
- excretion rate, intravenous versus oral administration, in words [4]: almost the same excretion rates
- main route of excretion, in words [4]: excreted mainly in the urine
- MIC [5]: > 200 µg/mL
- MIC [6]: > 200 µg/mL
- MIC [7]: > 200 µg/mL
- MIC [8]: > 200 µg/mL
- MIC [9]: > 200 µg/mL
- MIC [10]: > 200 µg/mL
- MIC (Sarcina lutea ATCC 9341): > 200 µg/mL
- MIC [11]: > 200 µg/mL
- MIC [12]: > 200 µg/mL
